Biological target: CYP79D1 (Manihot esculenta, UniProt Q9M7B8)
Procedure: Isolated, recombinant CYP79D1 is reconstituted and its catalytic activity determined in vitro using reaction mixtures with a total volume of 30 μl containing 2.5 pmol CYP79D1, 0.05 U NADPH P450-oxidoreductase (Benveniste et al, Biochem J 235: 365-373, 1986), 10.6 mM L-α-dioleyl phosphatidylcholine, 0.35 μCi [U-^14C]-L-amino acid (L-Val, L-Ile, L-Leu, L-Tyr or L-Phe; Amersham, Sweden), 1 mM NADPH, 0.1 M NaCl and 20 mM KPi pH 7.9. In assays containing ^14C-L-valine or ^14C-L-isoleucine, different amounts of unlabeled L- and D-amino acids (0-6 mM) are added. After incubation for 10 minutes at 30° C. the products formed are extracted into 60 μl ethyl acetate and separated on TLC sheets (Merck Kieselgel 60F254) using n-pentane/diethyl ether (50:50, v/v) or toluene/ethyl acetate (5:1, v/v) as eluents for aliphatic compounds and aromatic compounds, respectively. ^14C-labeled oximes are visualized and quantified using a STORM 840 phosphor imager (Molecular Dynamics, CA, USA). The activity of CYP79D1 is additionally measured in the presence of the inhibitors tetcyclasis, ABT and DPI under the same conditions as described above. For in vivo activity assays 200 μl P. pastoris cells are pelleted and resuspended in 100 μl 50 mM Tricine pH 7.9 and 0.35 μCi [U-^14C]-L-valine or L-isoleucine. After incubation for 30 minutes at 30° C. the cells are extracted with ethyl acetate and the products formed are analyzed as above.
CYP79D1 is reconstituted with sorghum NADPH-P450 oxidoreductase in the presence of high amounts of the lipid L-α-dioleyl phosphatidylcholine and 100 mM NaCl. […] To examine the effect of inhibitors on isolated CYP79D1, reconstitutions are performed in the presence of tetcyclasis, ABT and DPI using the same conditions as for cassava microsomes.

CYP79D1, sequence (Q9M7B8 2-542): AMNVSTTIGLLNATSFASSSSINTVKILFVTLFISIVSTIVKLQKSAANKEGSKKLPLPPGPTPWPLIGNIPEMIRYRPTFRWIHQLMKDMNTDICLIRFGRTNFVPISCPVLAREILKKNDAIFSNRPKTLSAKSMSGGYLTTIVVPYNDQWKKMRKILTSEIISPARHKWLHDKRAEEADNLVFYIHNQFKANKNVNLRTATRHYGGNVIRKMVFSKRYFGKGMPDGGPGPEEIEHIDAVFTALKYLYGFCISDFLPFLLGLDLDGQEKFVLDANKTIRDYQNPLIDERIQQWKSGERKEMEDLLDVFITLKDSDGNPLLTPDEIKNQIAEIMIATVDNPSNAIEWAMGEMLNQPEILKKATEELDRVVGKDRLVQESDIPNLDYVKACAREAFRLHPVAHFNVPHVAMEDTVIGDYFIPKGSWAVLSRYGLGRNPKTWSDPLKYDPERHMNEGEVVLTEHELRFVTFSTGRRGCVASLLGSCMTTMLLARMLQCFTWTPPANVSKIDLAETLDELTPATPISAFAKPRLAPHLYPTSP

N[C@@H](Cc1ccc(O)cc1)C(=O)O [L-tyrosine]
metabolism relative to that observed with L-valine (detection level): < 0.8%
